From ChEMBL document CHEMBL1201862, “PubChem BioAssay data set” (2004)
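Values below derive from 48-hour exposures of cells grown in 96-well plates, with endpoints linearly interpolated between the two concentrations bracketing the appropriate inhibition level. GI50 = concentration required for 50% inhibition of growth.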 Active and inactive are the calls of the source. No stated cut-off is given here; in the data, active = GI50 up to about 1.1 µM and inactive = higher.

How the values were obtained:
Experiment in all cases: inhibition of tumour cell growth, NCI panel, 48 h
OVCAR-3 = tested on: OVCAR-3
SF-539 = tested on: SF-539
OVCAR-8 = tested on: OVCAR-8
HT-29 = tested on: HT-29
Hs-578T = tested on: Hs-578T
ACHN = tested on: ACHN
K562 = tested on: K562
SNB-75 = tested on: SNB-75
UACC-257 = tested on: UACC-257
PC-3 = tested on: PC-3
MOLT-4 = tested on: MOLT-4
SR = tested on: SR
COLO 205 = tested on: COLO 205
BT-549 = tested on: BT-549
MDA-N = tested on: MDA-N
RPMI-8226 = tested on: RPMI-8226
SW-620 = tested on: SW-620
UO-31 = tested on: UO-31
MDA-MB-435 = tested on: MDA-MB-435
M19-MEL = tested on: M19-MEL

Measured: GI50

Cc1ccc(/N=N/C(=N\c2ccc(Cl)cc2)c2ccc(N(CCC#N)CCC#N)cc2)cc1
inactive: OVCAR-3 33.4 µM | SF-539 47.4 µM | OVCAR-8 63.8 µM | HT-29 71.4 µM | Hs-578T 33.7 µM | ACHN 42 µM | K562 > 100 µM | SNB-75 60.3 µM | UACC-257 12.4 µM | PC-3 22.6 µM | MOLT-4 > 100 µM | SR 22 µM | COLO 205 17.4 µM | BT-549 16.7 µM | MDA-N 55.6 µM | RPMI-8226 > 100 µM | SW-620 58.9 µM | UO-31 6.89 µM | MDA-MB-435 19.1 µM

C[N+]1(C)C/C(=C/c2ccc(F)cc2)C(=O)/C(=C\c2ccc(F)cc2)C1
inactive: OVCAR-3 45.5 µM | SF-539 38.2 µM | OVCAR-8 47.2 µM | M19-MEL 36.1 µM | ACHN > 100 µM | K562 28.2 µM | SNB-75 53.8 µM | UACC-257 24.7 µM | MOLT-4 15.4 µM | COLO 205 60.7 µM | RPMI-8226 24.4 µM | SW-620 75.9 µM | UO-31 > 100 µM

CCCCC(C#N)(OP1(=O)OC(c2ccccc2)C(C)N1C)c1ccccc1 (centres undefined)
inactive: OVCAR-3 16.6 µM | SF-539 15.5 µM | OVCAR-8 17.6 µM | HT-29 18.1 µM | Hs-578T 16.3 µM | ACHN 19 µM | K562 19 µM | SNB-75 18.2 µM | UACC-257 18.3 µM | PC-3 17 µM | MOLT-4 15.7 µM | SR 19.9 µM | COLO 205 17.8 µM | BT-549 20.3 µM | MDA-N 16.4 µM | RPMI-8226 20.8 µM | SW-620 16.4 µM | UO-31 17.3 µM | MDA-MB-435 17.7 µM

O=C1CCCC(O)=C1SC1=C(O)CCCC1=O
inactive: OVCAR-3 > 100 µM | SF-539 > 100 µM | OVCAR-8 > 100 µM | HT-29 72.8 µM | M19-MEL > 100 µM | K562 51.4 µM | SNB-75 77.4 µM | UACC-257 > 100 µM | MOLT-4 > 100 µM | COLO 205 > 100 µM | RPMI-8226 > 100 µM | SW-620 > 100 µM | UO-31 98.2 µM
